The source of these data is patent US20220125765A1, “PHARMACEUTICAL COMBINATIONS COMPRISING MEBENDAZOLE AND A STRONG OR MODERATE CYP1A2 INHIBITOR” (ZEPHAPHARM LTD, priority 2019, published 2022).

Like-named read-outs stand apart in the source and are kept apart here.

Data set [1] relates to human cryopreserved hepatocytes. The data set can be described thus: Stability in human cryopreserved hepatocytes without and with cimetidine or furafylline (Example 5). Type of data set: in vitro ADME. To be noted: human hepatocytes, largest effect over concentrations tested. The procedure:
The final incubation volume was 500 μL. Two control compounds were included with each species, alongside appropriate vehicle control.
The samples were analysed for mebendazole or ethoxycoumarin using LC-MS/MS.
The final incubation volume was 500 μL.
A positive control compound, ethoxycoumarin, for CYP1A2 was included. […] The samples were analysed for mebendazole or ethoxycoumarin using LC-MS/MS.

Data set [2] in a line: Stability in human liver microsomes without and with cimetidine or furafylline (Example 4). Format: in vitro ADME. To be noted: human liver microsomes, largest effect over concentrations tested. How it is done: A minus cofactor control incubation was included for each compound tested where 0.1 M phosphate buffer pH 7.4 was added instead of NADPH (minus NADPH). […] The samples were analysed for mebendazole or phenacetin using LC-MS/MS.
A minus cofactor control incubation was included for each compound tested where 0.1 M phosphate buffer pH 7.4 was added instead of cofactor (minus NADPH). […] The samples were analysed for mebendazole or phenacetin using LC-MS/MS.
On the technique in general: Microsomes from liver hold many membrane-bound enzymes, among them those of drug oxidation.

Data set [3] relates to human cryopreserved hepatocytes. Conditions: for reduction of metabolism of mebendazole: initial experiments.
Description: (§3) The amount of test compound remaining at each time point was analysed by LC-MS/MS. Appropriate control compounds were also incubated.
(§4) The final incubation volume was 500 μL. Appropriate control compounds were included, alongside appropriate vehicle control.
(§5) The reactions were stopped by transferring 50 μL of incubate to 100 μL acetonitrile containing internal standard at the appropriate time points (0, 5, 10, 20, 40 and 60 min). The termination plates were centrifuged at 2500 rpm at 4° C. for 30 min to precipitate the protein.
Data set [4] shares this test system. The data set can be described thus: Stability in human cryopreserved hepatocytes without and with cimetidine or thiabendazole (Example 6). To be noted: human hepatocytes, largest effect over concentrations tested.
Description: (§6) Mebendazole (1 μM) was incubated with cryopreserved human hepatocytes for 60 min in the absence and presence of cimetidine at 30, 100 and 300 μM) and thiabendazole at 10, 30 and 100 μM and samples taken at the required time points. The amount of test compound remaining at each time point was analysed by LC-MS/MS. Appropriate control compounds were also incubated along with ethoxycoumarin, which was incubated in the absence and presence of cimetidine and thiabendazole.
(§7) The final incubation volume was 500 μL. Two control compounds were included, alongside appropriate vehicle control. A positive control compound, ethoxycoumarin, for CYP1A2 was included. The positive control compound was incubated without inhibitor and in the presence of each inhibitor. The reactions were stopped by transferring 50 μL of incubate to 100 μL acetonitrile containing internal standard at the appropriate time points (0, 5, 10, 20, 40 and 60 min). The termination plates were centrifuged at 2500 rpm at 4° C. for 30 min to precipitate the protein.
A further data set concerns the target human BCRP transporter (Homo sapiens, UniProt Q9UNQ0). To be noted: Caco-2.
Data set [5] relates to human cryopreserved hepatocytes.
Description: as §3, §4, §5
A short description of another data set: in vitro. Conditions: human, cryopreserved hepatocytes, probe mebendazole 1 µM (intrinsic clearance).
Another data set has as its target CYP2C9 (Homo sapiens, UniProt P11712). The data set can be described thus: Cytochrome P450 reaction phenotyping, recombinant CYP2C9 (Bactosomes). Conditions: human, recombinant enzyme, pH 7.4. How it is done:
(§1) Incubations were also performed using control Bactosomes™ (no P450 enzymes present) to reveal any non-enzymatic degradation. Control compounds known to be metabolised specifically by each P450 isoform were included. All incubations were performed singularly for each test compound.
(§2) Incubations were also performed using control Bactosomes™ (no P450 enzymes present) to reveal any non-enzymatic degradation. Control compounds known to be metabolised specifically by each P450 isoform were included. All incubations were performed singularly for each test compound. […] The reactions were stopped by transferring an aliquot of incubate to quench solvent at the appropriate time points, in a 1:3 ratio. The termination plates were centrifuged at 3,000 rpm for 20 min at 4° C. to precipitate the protein.

The next data set addresses T1, CYP2B6 (Homo sapiens, UniProt P20813).
T1 sequence (P20813 1-491): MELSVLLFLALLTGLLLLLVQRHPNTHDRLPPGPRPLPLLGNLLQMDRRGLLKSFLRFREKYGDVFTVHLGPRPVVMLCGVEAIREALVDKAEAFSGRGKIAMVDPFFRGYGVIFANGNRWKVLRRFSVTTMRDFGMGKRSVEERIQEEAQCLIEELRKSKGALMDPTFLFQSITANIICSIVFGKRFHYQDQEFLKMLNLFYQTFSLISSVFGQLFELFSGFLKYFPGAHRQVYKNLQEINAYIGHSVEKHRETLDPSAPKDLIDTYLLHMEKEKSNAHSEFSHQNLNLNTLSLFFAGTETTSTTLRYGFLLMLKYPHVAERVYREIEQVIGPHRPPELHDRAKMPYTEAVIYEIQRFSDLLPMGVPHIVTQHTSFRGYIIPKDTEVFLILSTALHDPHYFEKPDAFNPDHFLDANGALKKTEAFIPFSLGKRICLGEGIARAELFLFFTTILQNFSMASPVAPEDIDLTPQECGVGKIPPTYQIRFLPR
Description: Cytochrome P450 reaction phenotyping, recombinant CYP2B6 (Bactosomes). Conditions: CYP2B6, substrate 1 μM. How it is done: as §1, §2

A further data set deals with CYP2D6 (Homo sapiens, UniProt P10635). The data set can be described thus: Cytochrome P450 reaction phenotyping, recombinant CYP2D6 (Bactosomes). To be noted: human, recombinant enzyme, pH 7.4. How it is done: as §1, §2
The target of data set [6] is T2, CYP1A2 (Homo sapiens, UniProt P05177).
T2 sequence (P05177 1-516): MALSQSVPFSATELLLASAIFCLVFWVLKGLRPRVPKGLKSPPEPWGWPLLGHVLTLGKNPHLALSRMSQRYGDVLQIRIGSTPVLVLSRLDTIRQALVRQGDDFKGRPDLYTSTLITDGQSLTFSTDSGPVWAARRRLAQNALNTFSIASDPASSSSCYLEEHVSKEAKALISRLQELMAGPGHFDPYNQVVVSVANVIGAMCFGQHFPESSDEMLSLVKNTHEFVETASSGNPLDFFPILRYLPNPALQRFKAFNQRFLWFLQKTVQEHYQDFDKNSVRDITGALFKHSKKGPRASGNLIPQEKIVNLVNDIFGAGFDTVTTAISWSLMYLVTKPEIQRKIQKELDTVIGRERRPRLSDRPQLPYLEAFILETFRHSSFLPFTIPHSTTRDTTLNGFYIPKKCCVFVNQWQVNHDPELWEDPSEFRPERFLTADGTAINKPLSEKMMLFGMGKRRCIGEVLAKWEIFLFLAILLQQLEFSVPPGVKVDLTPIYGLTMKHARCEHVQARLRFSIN
Description: Cytochrome P450 reaction phenotyping, recombinant CYP1A2 (Bactosomes). The procedure:
as §1, §2

For another data set, the target named is T3, CYP2C8 (Homo sapiens, UniProt P10632).
T3 sequence (P10632 1-490): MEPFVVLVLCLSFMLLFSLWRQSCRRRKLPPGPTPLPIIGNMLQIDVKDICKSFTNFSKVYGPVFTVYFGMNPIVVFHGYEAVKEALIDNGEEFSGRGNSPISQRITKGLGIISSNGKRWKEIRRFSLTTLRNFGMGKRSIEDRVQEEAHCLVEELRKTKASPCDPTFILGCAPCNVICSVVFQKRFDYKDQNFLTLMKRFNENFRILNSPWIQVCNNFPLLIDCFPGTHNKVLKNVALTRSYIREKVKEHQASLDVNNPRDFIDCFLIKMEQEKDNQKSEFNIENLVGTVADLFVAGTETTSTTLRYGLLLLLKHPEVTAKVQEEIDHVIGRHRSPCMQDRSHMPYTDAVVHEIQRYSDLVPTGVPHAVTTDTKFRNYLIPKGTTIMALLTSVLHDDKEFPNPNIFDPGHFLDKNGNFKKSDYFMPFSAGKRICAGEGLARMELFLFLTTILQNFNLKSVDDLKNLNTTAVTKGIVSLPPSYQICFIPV
Description: Cytochrome P450 reaction phenotyping, recombinant CYP2C8 (Bactosomes). To be noted: CYP2C8, substrate 1 μM. How it is done:
as §1, §2

The next data set deals with CYP2C19 (Homo sapiens, UniProt P33261). Description: Cytochrome P450 reaction phenotyping, recombinant CYP2C19 (Bactosomes). To be noted: human, recombinant enzyme, pH 7.4. The procedure:
as §1, §2

The next data set concerns the target CYP3A4 (Homo sapiens, UniProt P08684). Description: Cytochrome P450 reaction phenotyping, recombinant CYP3A4 (Bactosomes). Conditions: human, recombinant enzyme, pH 7.4. How it is done: as §1, §2
A short description of data set [7]: Ricobendazole microsomal metabolic stability without and with cimetidine or furafylline (Example 8). Format: in vitro ADME. Conditions: human, liver microsomes; for half-life at 0.1 μM: read-out: t½. The procedure: Incubation in the absence of NADPH was also performed to assess non-CYP mediated stability. Appropriate control compounds were also incubated.
A minus cofactor control incubation was included for each compound tested where 0.1 M phosphate buffer pH 7.4 was added instead of NADPH (minus NADPH). […] A control compound (phenacetin) was included (incubated without and with inhibitors as described above). All incubations were performed singularly for each test compound. Each incubation was carried out for 0, 5, 15, 30 and 45 min. The control (minus NADPH) was incubated for 45 min only.

The subject of data set [8] is human cryopreserved hepatocytes. This is another data set of the same source.
Description: as §6, §7
Data set [9] deals with CYP1A2 (Homo sapiens, UniProt P05177). Conditions: cited from earlier work.

Chain of human BCRP transporter (Q9UNQ0 whole entry): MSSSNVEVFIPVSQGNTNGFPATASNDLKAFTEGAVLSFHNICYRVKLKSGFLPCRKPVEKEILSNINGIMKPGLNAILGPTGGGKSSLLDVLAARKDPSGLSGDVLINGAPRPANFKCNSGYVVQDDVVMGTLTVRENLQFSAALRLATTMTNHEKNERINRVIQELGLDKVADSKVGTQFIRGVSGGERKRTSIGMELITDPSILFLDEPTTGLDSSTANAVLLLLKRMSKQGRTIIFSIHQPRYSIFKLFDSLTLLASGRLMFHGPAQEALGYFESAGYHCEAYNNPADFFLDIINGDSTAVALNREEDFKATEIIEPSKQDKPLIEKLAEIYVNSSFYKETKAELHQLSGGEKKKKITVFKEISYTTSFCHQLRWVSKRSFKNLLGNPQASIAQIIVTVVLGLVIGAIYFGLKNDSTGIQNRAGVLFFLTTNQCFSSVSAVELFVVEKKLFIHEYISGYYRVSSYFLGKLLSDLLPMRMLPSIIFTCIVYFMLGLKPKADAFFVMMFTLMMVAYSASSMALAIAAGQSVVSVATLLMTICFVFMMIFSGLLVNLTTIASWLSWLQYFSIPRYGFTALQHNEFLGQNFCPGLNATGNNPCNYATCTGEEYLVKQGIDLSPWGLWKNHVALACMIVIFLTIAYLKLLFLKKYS
Chain of CYP2C9 (P11712 whole entry, canonical isoform): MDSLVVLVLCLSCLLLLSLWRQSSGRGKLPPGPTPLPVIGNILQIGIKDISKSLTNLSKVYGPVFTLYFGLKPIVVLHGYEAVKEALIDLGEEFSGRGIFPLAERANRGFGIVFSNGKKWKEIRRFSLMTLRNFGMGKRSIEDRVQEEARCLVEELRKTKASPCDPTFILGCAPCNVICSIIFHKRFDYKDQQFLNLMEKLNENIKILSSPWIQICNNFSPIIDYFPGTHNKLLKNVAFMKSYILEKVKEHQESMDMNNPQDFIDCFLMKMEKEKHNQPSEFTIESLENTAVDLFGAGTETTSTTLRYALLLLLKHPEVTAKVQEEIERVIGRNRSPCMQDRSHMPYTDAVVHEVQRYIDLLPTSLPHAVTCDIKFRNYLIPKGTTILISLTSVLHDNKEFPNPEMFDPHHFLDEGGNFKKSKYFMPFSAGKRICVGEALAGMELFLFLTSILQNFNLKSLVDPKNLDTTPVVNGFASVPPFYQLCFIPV
Chain of CYP3A4 (P08684 whole entry): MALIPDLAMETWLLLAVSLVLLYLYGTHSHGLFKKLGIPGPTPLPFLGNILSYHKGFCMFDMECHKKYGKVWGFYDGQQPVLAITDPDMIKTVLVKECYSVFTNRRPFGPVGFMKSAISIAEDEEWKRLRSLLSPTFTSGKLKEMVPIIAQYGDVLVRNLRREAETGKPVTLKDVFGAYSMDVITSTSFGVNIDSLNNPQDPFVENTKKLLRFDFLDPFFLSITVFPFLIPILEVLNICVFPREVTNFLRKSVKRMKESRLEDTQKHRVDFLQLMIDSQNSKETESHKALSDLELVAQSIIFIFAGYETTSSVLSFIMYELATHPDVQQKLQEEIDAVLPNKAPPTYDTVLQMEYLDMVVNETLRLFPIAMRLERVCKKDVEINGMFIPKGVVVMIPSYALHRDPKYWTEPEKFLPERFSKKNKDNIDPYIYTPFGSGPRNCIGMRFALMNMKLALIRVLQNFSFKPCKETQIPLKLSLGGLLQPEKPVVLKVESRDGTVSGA
Chain of CYP2C19 (P33261 whole entry): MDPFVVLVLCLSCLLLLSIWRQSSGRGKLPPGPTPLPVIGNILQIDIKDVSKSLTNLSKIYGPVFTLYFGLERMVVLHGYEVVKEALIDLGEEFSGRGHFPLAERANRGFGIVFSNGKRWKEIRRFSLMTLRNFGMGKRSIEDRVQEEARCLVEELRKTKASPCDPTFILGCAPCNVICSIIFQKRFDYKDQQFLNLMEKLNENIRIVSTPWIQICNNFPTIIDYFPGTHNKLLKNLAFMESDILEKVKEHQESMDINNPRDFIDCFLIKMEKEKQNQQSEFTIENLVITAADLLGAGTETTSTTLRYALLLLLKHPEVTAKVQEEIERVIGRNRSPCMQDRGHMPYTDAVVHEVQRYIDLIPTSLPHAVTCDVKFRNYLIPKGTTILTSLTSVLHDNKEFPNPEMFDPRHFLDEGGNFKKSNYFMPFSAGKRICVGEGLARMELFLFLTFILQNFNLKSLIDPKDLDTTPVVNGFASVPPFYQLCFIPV
Chain of CYP2D6 (P10635 whole entry): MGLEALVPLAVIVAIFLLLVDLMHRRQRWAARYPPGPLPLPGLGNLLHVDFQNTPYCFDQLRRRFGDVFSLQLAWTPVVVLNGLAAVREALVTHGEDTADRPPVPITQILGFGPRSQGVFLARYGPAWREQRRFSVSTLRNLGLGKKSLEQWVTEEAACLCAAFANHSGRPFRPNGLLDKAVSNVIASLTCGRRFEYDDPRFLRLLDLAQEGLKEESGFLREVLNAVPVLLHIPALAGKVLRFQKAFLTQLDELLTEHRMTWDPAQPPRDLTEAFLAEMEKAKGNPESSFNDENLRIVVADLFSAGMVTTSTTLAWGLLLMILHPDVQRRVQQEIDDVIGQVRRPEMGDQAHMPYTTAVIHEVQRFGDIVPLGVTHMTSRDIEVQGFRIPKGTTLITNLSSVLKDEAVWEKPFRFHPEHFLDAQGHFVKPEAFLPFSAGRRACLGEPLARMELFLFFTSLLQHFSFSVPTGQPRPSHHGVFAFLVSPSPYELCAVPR
Description for human BCRP transporter: Bidirectional apparent permeability of test compound was quantified by LC-MS/MS and used to determine an efflux ratio.
Description for in vitro: as §3, §4, §5

On to `CN/C(=N/CCSCc1nc[nH]c1C)NC#N` [Cimetidine], for which the “decrease of mebendazole metabolism in presence of the inhibitor” value (from here on “decrease … of the inhibitor”) in data set [1] is 1.3 fold; in [4] it was 1.2 fold. Besides, the “inhibition of intrinsic clearance of mebendazole” value (“inhibition … of mebendazole” below) in [1] was found to be 25%; in data set [2] it was 32%; in data set [4], 19%. Also, in [3] (in the presence of cimetidine (30-300 μM)), the “effect on metabolism of mebendazole” value is “not decreased”.

As to `C[C@]12CC[C@@H]3c4ccc(OS(=O)(=O)O)cc4CC[C@H]3[C@@H]1CCC2=O` [Estrone-3-sulfate], on human BCRP transporter, the “efflux ratio (ER) of positive control substrate” value worked out at 128.

For orientation: inhibition means the share of the control response that was lost under treatment. For the compound `COCCCC/C(=N\OCCN)c1ccc(C(F)(F)F)cc1` [Fluvoxamine], the “reduction of metabolism of mebendazole” value is “up to 20.2 fold” in data set [5] (fluvoxamine 10 to 300 μM, maximum as seen at 10 μM) and 2.3 fold in [3] (at 30 μM fluvoxamine). The same compound showed an inhibition at 10 µM in the data set “in vitro” of 95%.

Take `Cc1nc2c([nH]1)c(=O)n(C)c(=O)n2Cc1ccco1` [Furafylline]: the “decrease … of the inhibitor” value in data set [1] was 9.1 fold. Besides, the “inhibition … of mebendazole” value in data set [1] is listed as 89%; in data set [2], 99%.

Regarding `Cc1cccc(C)c1OCC(C)N` (centres unmarked) [Mexiletine], the “reduction of metabolism of mebendazole” value in data set [5] (mexiletine 10 to 300 μM, maximum as seen at 30 μM) is “up to 7.8 fold”; in data set [3] (at 10 μM mexiletine), 2.7 fold. In the data set “in vitro”, the inhibition at 30 µM turned out to be 87%.

For the compound `CCC[S+]([O-])c1ccc2[nH]c(NC(=O)OC)nc2c1` (centres unmarked) [Ricobendazole, albendazole sulphoxide], the half-life at 1 μM on CYP2C9 came out at 4.53 ± 2.67 h; on CYP2D6, 7.75 ± 4.55 h; on CYP1A2 [6] (human, recombinant enzyme, pH 7.4), 4 ± 0.635 h; at CYP2C19, 10.3 ± 10.8 h; on CYP3A4, 8.15 ± 11.4 h. Further, the “metabolism by recombinant enzyme” value at CYP2B6 and on CYP2C8 was “not metabolised” throughout. Besides, the “% remaining” value at CYP1A2 [6] (CYP1A2, substrate 1 μM, 45 min) came out at 85%. Also, the microsomal CLint at 0.1 μM in data set [7] (pH 7.4, with cimetidine 30 μM, 0.1 μM, 1 mg/mL, cimetidine 30 μM, read-out: CLint) was found to be 3.15 ± 1.24 µL/min/mg; in data set [7] (pH 7.4, with cimetidine 100 μM, 0.1 μM, 1 mg/mL, cimetidine 100 μM, read-out: CLint), 3.43 ± 1.56 µL/min/mg; in data set [7] (pH 7.4, with cimetidine 300 μM, 0.1 μM, 1 mg/mL, cimetidine 300 μM, read-out: CLint) it was 3.54 ± 1.09 µL/min/mg; in data set [7] (pH 7.4, with furafylline 3 μM, read-out: CLint), 1.27 ± 2.47 µL/min/mg; in data set [7] (pH 7.4, with furafylline 10 μM, read-out: CLint) it was 4.31 ± 2.48 µL/min/mg; in data set [7] (pH 7.4, with furafylline 30 μM, read-out: CLint), 2.92 ± 1.75 µL/min/mg. In addition, the microsomal CLint at 0.1 μM in data set [7] (pH 7.4, 0.1 μM, 1 mg/mL, no inhibitor, read-out: CLint) was found to be 2.83 ± 1.76 µL/min/mg; in data set [7] (optimisation, 0.1 μM and 1 mg/mL protein, read-out: intrinsic clearance), 6.63 ± 1.84 µL/min/mg. In addition, the half-life at 0.1 μM in data set [7] (pH 7.4, with cimetidine 30 μM, 0.1 μM, 1 mg/mL, cimetidine 30 μM) came to 3.67 h; in data set [7] (pH 7.4, with cimetidine 100 μM, 0.1 μM, 1 mg/mL, cimetidine 100 μM), 3.37 h; in data set [7] (pH 7.4, with cimetidine 300 μM, 0.1 μM, 1 mg/mL, cimetidine 300 μM), 3.27 h; in data set [7] (pH 7.4, with furafylline 3 μM) it was 9.08 h; in [7] (pH 7.4, with furafylline 10 μM), 2.68 h; in data set [7] (pH 7.4, with furafylline 30 μM), 3.95 h. In addition, the half-life at 0.1 μM in data set [7] (pH 7.4, 0.1 μM, 1 mg/mL, no inhibitor) turned out to be 4.08 h. Also, the microsomal CLint at 1 μM in [7] (optimisation, 1 μM and 0.5 mg/mL protein, read-out: intrinsic clearance) came to 4.39 ± 2.77 µL/min/mg.

Broadly, the IC50 is the midpoint of a concentration-inhibition curve. Broadly, the Ki is a dissociation constant, usually derived from enzyme kinetics or from competition with a known ligand. With `c1ccc2[nH]c(-c3cscn3)nc2c1` [Thiabendazole], in [8], the “decrease … of the inhibitor” value stood at 6.4 fold and the “inhibition … of mebendazole” value came to 84%. Further, on CYP1A2 [9] (read-out: IC50 value for CYP1A2 inhibition), the IC50 was 830 nM. In addition, at CYP1A2 [9] (read-out: inhibition constant (Ki) value for CYP1A2 inhibition), the Ki was 1540 nM.
